These results are taken from the supplement of paper PMC10307832.

Holding throughout (test): relative viability (nuclei count vs DMSO), 5 days (fraction); higher = more cells survive
Compound in assay [1]: COc1cc([C@@H]2c3cc4c(cc3[C@@H](O[C@@H]3O[C@@H]5CO[C@@H](C)O[C@H]5[C@H](O)[C@H]3O)[C@H]3COC(=O)[C@H]23)OCO4)cc(OC)c1O [Etoposide] + O=C(c1cc(Cc2n[nH]c(=O)c3ccccc23)ccc1F)N1CCN(C(=O)C2CC2)CC1 [Olaparib] (partner 8 µM)
The procedure, abridged:
(§1)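 Lung cancer cell lines were seeded in 1536-well plates and dosed by pin tool the next day, with either a single drug or a fixed anchor-drug dose combined with five library-drug doses (not always all listed) spaced in √10 steps. Five days later, one step fixed the cells and stained their nuclei (final 0.05% Triton X-100, 1% formaldehyde, 1 ug/ml Hoechst), and nuclei were counted on 4× images. Relative viability is the nuclei count in treated wells divided by the count in vehicle wells, and each value is the median of duplicate plates.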

Compound in assay [2]: COc1cc([C@@H]2c3cc4c(cc3[C@@H](O[C@@H]3O[C@@H]5CO[C@@H](C)O[C@H]5[C@H](O)[C@H]3O)[C@H]3COC(=O)[C@H]23)OCO4)cc(OC)c1O [Etoposide] + C[C@@H](Oc1cc(-c2cnn(C3CCNCC3)c2)cnc1N)c1c(Cl)ccc(F)c1Cl [Crizotinib] (partner 1 µM)
The procedure, abridged:
as §1

Compound in assay [3]: CC1=C(N=C(N=C1N)[C@H](CC(=O)N)NC[C@@H](C(=O)N)N)C(=O)N[C@@H]([C@H](C2=CN=CN2)OC3C(C(C(C(O3)CO)O)O)OC4C(C(C(C(O4)CO)O)OC(=O)N)O)C(=O)N[C@H](C)[C@H]([C@H](C)C(=O)N[C@@H]([C@@H](C)O)C(=O)NCCC5=NC(=CS5)C6=NC(=CS6)C(=O)NCCC[S+](C)C)O [Bleomycin] + CS(=O)(=O)CCNCc1ccc(-c2ccc3ncnc(Nc4ccc(OCc5cccc(F)c5)c(Cl)c4)c3c2)o1 [Lapatinib] (partner 2 µM)
The note with it: main component drawn. The procedure, abridged:
as §1

Compound in assay [4]: CC1=C(N=C(N=C1N)[C@H](CC(=O)N)NC[C@@H](C(=O)N)N)C(=O)N[C@@H]([C@H](C2=CN=CN2)OC3C(C(C(C(O3)CO)O)O)OC4C(C(C(C(O4)CO)O)OC(=O)N)O)C(=O)N[C@H](C)[C@H]([C@H](C)C(=O)N[C@@H]([C@@H](C)O)C(=O)NCCC5=NC(=CS5)C6=NC(=CS6)C(=O)NCCC[S+](C)C)O [Bleomycin] + Cc1nc(Nc2ncc(C(=O)Nc3c(C)cccc3Cl)s2)cc(N2CCN(CCO)CC2)n1 [Dasatinib] (partner 0.075 µM)
The note with it: main component drawn. The procedure, abridged: as §1

Turning to LU99A, the relative viability in assay [1] (first compound 0.01 µM) was found to be 0.277; in assay [1] (first compound 0.03162 µM) it was 0.28; in assay [1] (first compound 0.1 µM) it was 0.205; in assay [1] (first compound 0.3162 µM), 0.139; in assay [1] (first compound 1 µM) it was 0.118; in assay [2] (first compound 0.01 µM), 0.577. Moreover, the relative viability turned out to be 0.512 in assay [2] (first compound 0.03162 µM); 0.388 in assay [2] (first compound 0.1 µM); 0.288 in assay [2] (first compound 0.3162 µM); 0.189 in assay [2] (first compound 1 µM); 0.58 in assay [3] (first compound 0.01 µM); 0.742 in assay [3] (first compound 0.03162 µM). Besides, the relative viability in assay [3] (first compound 0.1 µM) worked out at 0.271; in assay [3] (first compound 0.3162 µM) it was 0.138; in assay [3] (first compound 1 µM), 0.108; in assay [4] (first compound 0.01 µM) it was 0.366; in assay [4] (first compound 0.03162 µM), 0.505; in assay [4] (first compound 0.1 µM), 0.367. In addition, the relative viability in assay [4] (first compound 0.3162 µM) stood at 0.205; in assay [4] (first compound 1 µM), 0.125.

Regarding NCI-H650, the relative viability in assay [1] (first compound 0.01 µM) came out at 0.393; in assay [1] (first compound 0.03162 µM), 0.317; in assay [1] (first compound 0.1 µM), 0.314; in assay [1] (first compound 0.3162 µM), 0.184; in assay [1] (first compound 1 µM) it was 0.152; in assay [2] (first compound 0.01 µM), 0.568. Further, the relative viability in assay [2] (first compound 0.03162 µM) came to 0.831; in assay [2] (first compound 0.1 µM), 0.416; in assay [2] (first compound 0.3162 µM), 0.339; in assay [2] (first compound 1 µM), 0.174; in assay [3] (first compound 0.01 µM), 0.537; in assay [3] (first compound 0.03162 µM) it was 0.748. Moreover, the relative viability came to 0.686 in assay [3] (first compound 0.1 µM); 0.318 in assay [3] (first compound 0.3162 µM); 0.21 in assay [3] (first compound 1 µM); 0.389 in assay [4] (first compound 0.01 µM); 0.438 in assay [4] (first compound 0.03162 µM); 0.432 in assay [4] (first compound 0.1 µM). Also, the relative viability turned out to be 0.289 in assay [4] (first compound 0.3162 µM) and 0.212 in assay [4] (first compound 1 µM).

As to HCC-78, the relative viability in assay [1] (first compound 0.01 µM) worked out at 0.679; in assay [1] (first compound 0.03162 µM), 0.795; in assay [1] (first compound 0.1 µM) it was 0.553; in assay [1] (first compound 0.3162 µM) it was 0.259; in assay [1] (first compound 1 µM), 0.235; in assay [2] (first compound 0.01 µM) it was 0.31. Further, the relative viability in assay [2] (first compound 0.03162 µM) was determined as 0.334; in assay [2] (first compound 0.1 µM) it was 0.241; in assay [2] (first compound 0.3162 µM), 0.227; in assay [2] (first compound 1 µM), 0.181; in assay [3] (first compound 0.01 µM), 0.64; in assay [3] (first compound 0.03162 µM), 0.918. Moreover, the relative viability in assay [3] (first compound 0.1 µM) turned out to be 0.549; in assay [3] (first compound 0.3162 µM), 0.429; in assay [3] (first compound 1 µM), 0.215; in assay [4] (first compound 0.01 µM) it was 0.326; in assay [4] (first compound 0.03162 µM) it was 0.548; in assay [4] (first compound 0.1 µM), 0.366. Moreover, the relative viability in assay [4] (first compound 0.3162 µM) amounted to 0.287; in assay [4] (first compound 1 µM), 0.285.

On to NCI-H1755, for which the relative viability in assay [1] (first compound 0.01 µM) turned out to be 0.838; in assay [1] (first compound 0.03162 µM), 0.945; in assay [1] (first compound 0.1 µM), 0.791; in assay [1] (first compound 0.3162 µM), 0.799; in assay [1] (first compound 1 µM), 0.422; in assay [2] (first compound 0.01 µM), 0.846. Also, the relative viability in assay [2] (first compound 0.03162 µM) worked out at 0.839; in assay [2] (first compound 0.1 µM) it was 0.931; in assay [2] (first compound 0.3162 µM) it was 0.716; in assay [2] (first compound 1 µM), 0.595; in assay [3] (first compound 0.01 µM), 0.91; in assay [3] (first compound 0.03162 µM), 1.03. Also, the relative viability is 0.92 in assay [3] (first compound 0.1 µM); 0.631 in assay [3] (first compound 0.3162 µM); 0.578 in assay [3] (first compound 1 µM); 0.409 in assay [4] (first compound 0.01 µM); 0.433 in assay [4] (first compound 0.03162 µM); 0.407 in assay [4] (first compound 0.1 µM). Also, the relative viability is 0.454 in assay [4] (first compound 0.3162 µM) and 0.29 in assay [4] (first compound 1 µM).

Regarding NCI-H322M, the relative viability in assay [1] (first compound 0.01 µM) came to 0.781; in assay [1] (first compound 0.03162 µM), 0.764; in assay [1] (first compound 0.1 µM), 0.725; in assay [1] (first compound 0.3162 µM) it was 0.548; in assay [1] (first compound 1 µM) it was 0.508; in assay [2] (first compound 0.01 µM), 0.775. Further, the relative viability in assay [2] (first compound 0.03162 µM) came out at 0.889; in assay [2] (first compound 0.1 µM), 0.905; in assay [2] (first compound 0.3162 µM), 0.871; in assay [2] (first compound 1 µM) it was 0.533; in assay [3] (first compound 0.01 µM), 0.467; in assay [3] (first compound 0.03162 µM) it was 0.551. Moreover, the relative viability was 0.543 in assay [3] (first compound 0.1 µM); 0.383 in assay [3] (first compound 0.3162 µM); 0.348 in assay [3] (first compound 1 µM); 0.241 in assay [4] (first compound 0.01 µM); 0.26 in assay [4] (first compound 0.03162 µM); 0.262 in assay [4] (first compound 0.1 µM). The relative viability in assay [4] (first compound 0.3162 µM) amounted to 0.243; in assay [4] (first compound 1 µM), 0.263.

PC-3 [JPC-3]: the relative viability in assay [1] (first compound 0.01 µM) was determined as 0.992; in assay [1] (first compound 0.03162 µM), 0.928; in assay [1] (first compound 0.1 µM) it was 1.14; in assay [1] (first compound 0.3162 µM), 1.07; in assay [1] (first compound 1 µM) it was 0.794; in assay [2] (first compound 0.01 µM), 0.955. Also, the relative viability in assay [2] (first compound 0.03162 µM) was found to be 1.01; in assay [2] (first compound 0.1 µM), 1.05; in assay [2] (first compound 0.3162 µM), 0.969; in assay [2] (first compound 1 µM) it was 0.722; in assay [3] (first compound 0.01 µM), 0.455; in assay [3] (first compound 0.03162 µM), 0.422. For the same cell line, the relative viability is 0.473 in assay [3] (first compound 0.1 µM); 0.364 in assay [3] (first compound 0.3162 µM); 0.314 in assay [3] (first compound 1 µM); 0.881 in assay [4] (first compound 0.01 µM); 1.09 in assay [4] (first compound 0.03162 µM); 0.986 in assay [4] (first compound 0.1 µM). Also, the relative viability in assay [4] (first compound 0.3162 µM) was 0.72; in assay [4] (first compound 1 µM), 0.618.

As to NCI-H2405, the relative viability amounted to 0.851 in assay [1] (first compound 0.01 µM); 0.819 in assay [1] (first compound 0.03162 µM); 0.701 in assay [1] (first compound 0.1 µM); 0.562 in assay [1] (first compound 0.3162 µM); 0.293 in assay [1] (first compound 1 µM); 0.804 in assay [2] (first compound 0.01 µM). In addition, the relative viability in assay [2] (first compound 0.03162 µM) turned out to be 0.962; in assay [2] (first compound 0.1 µM), 0.717; in assay [2] (first compound 0.3162 µM), 0.694; in assay [2] (first compound 1 µM), 0.33; in assay [3] (first compound 0.01 µM) it was 0.836; in assay [3] (first compound 0.03162 µM) it was 1.01. The relative viability in assay [3] (first compound 0.1 µM) is 0.889; in assay [3] (first compound 0.3162 µM) it was 0.357; in assay [3] (first compound 1 µM) it was 0.262; in assay [4] (first compound 0.01 µM), 0.206; in assay [4] (first compound 0.03162 µM), 0.212; in assay [4] (first compound 0.1 µM), 0.208. For the same cell line, the relative viability in assay [4] (first compound 0.3162 µM) was determined as 0.181; in assay [4] (first compound 1 µM), 0.166.
